Consider 1 compound from patent US20230375576A1, “METHODS FOR THE TREATMENT OF FAMILIAL HETEROZYGOUS AND HOMOZYGOUS HYPERCHOLESTEROLEMIA WITH CYCLODEXTRINS” (Beren Therapeutics P.B.C., priority 2021, published 2023).

Assay [1] is described as follows: Cholesterol crystal dissolution capacity in plasma of HoFH patients (D6-labeled cholesterol in filtrate, GC-MS). The note with it: human plasma from HoFH patients; D6-labeled cholesterol crystals added; compared to control group; FIG. 1A. As for the experimental part: D6-labeled cholesterol crystals were added to human plasma collected from homozygous familial hypercholesterolemia (HoFH) patients treated with HPBCD (2-hydroxypropyl-beta-cyclodextrin). The reaction mixtures were filtered to remove crystals and the filtrate was assayed for the presence of D6-labeled cholesterol using gas chromatography-mass spectroscopy (GC-MS). Cholesterol measured in the filtrate indicated the ability of HPBCD (2-hydroxypropyl-beta-cyclodextrin) to dissolve cholesterol crystals.

Assay [2] relates to ABCA1. Briefly: mRNA expression of ABCA1 in whole blood from HoFH patients. Type of assay: cell-based, human. The note with it: 1.2 mM HPBCD, 6 hours, normalized to saline control, FIG. 1B. As for the experimental part:
This example aims to investigate the effects of HPBCD (2-hydroxypropyl-beta-cyclodextrin) on cholesterol efflux capacity in HoFH patients. HPBCD was added to whole blood obtained from HoFH patients at concentration of 1.2 mM. Untreated samples were used as control. The mixtures were incubated for 6 hours. Total mRNA was isolated and mRNA expression levels were measured. Data is shown as the level of gene expression normalized to saline control.

For assay [3], the system named is Ldlr−/− mice. Briefly: Effect on liver weight in Ldlr−/− mouse model. Format: in vivo. As to conditions: Ldlr−/− mice on Western diet; 2 g/kg subcutaneously after five weeks; livers weighed up to 4 weeks post-HPBCD; versus untreated mice; FIG. 3. The source says:
To evaluate the effect of HPBCD (2-hydroxypropyl-beta-cyclodextrin) on liver weight, experiments using Ldlr−/− mice were designed as described in FIGS. 2A and 2B. The mice were fed normal chow diet (NC) or high-fat (42%), high-cholesterol (1.2) diet Western diet (WD) as described in Table 1 and Table 2. After five weeks, the mice were subcutaneously injected with 2 g/kg […]. The livers were excised and weighed after five weeks (Group 1, 2, 6), six weeks (Group 3), seven weeks (Group 4), and nine weeks (Group 5), respectively. [table] [table]

Entries after “also recorded” stand apart in the source; their conditions may differ.

Take `CC(O)COC[C@H]1O[C@@H]2O[C@H]3[C@H](O)[C@@H](O)[C@@H](O[C@H]4[C@H](O)[C@@H](O)[C@@H](O[C@H]5[C@H](O)[C@@H](O)[C@@H](O[C@H]6[C@H](O)[C@@H](O)[C@@H](O[C@H]7[C@H](O)[C@@H](O)[C@@H](O[C@H]8[C@H](O)[C@@H](O)[C@@H](O[C@H]1[C@H](O)[C@H]2O)O[C@@H]8COCC(C)O)O[C@@H]7COCC(C)O)O[C@@H]6COCC(C)O)O[C@@H]5COCC(C)O)O[C@@H]4COCC(C)O)O[C@@H]3COCC(C)O` (stereo partly drawn) [HPBCD, 2-hydroxypropyl-beta-cyclodextrin]: in assay [1], the cholesterol crystal dissolution entry was “significantly increased”. For the same compound, the “mRNA expression level of ABCA1” value in assay [2] was “significant induction”. In addition, in assay [3], the liver weight result is recorded as “inhibits increase of liver weight; also recorded: did not show any further increase in liver weight”.
